According to ChEMBL document CHEMBL2176970, “Discovery and optimization of a series of 3-(3-phenyl-3H-imidazo[4,5-b]pyridin-2-yl)pyridin-2-amines: orally bioavailable, selective, and potent ATP-independent Akt inhibitors” (J Med Chem, 2012):
Calls of active or inactive are those of the source. The rule behind the calls is not given here.

Columns and labels:
[1] = biological target: T1, RAC-alpha serine/threonine-protein kinase (Homo sapiens, UniProt P31749); assay: Inhibition of Akt1 (1 to 480) expressed in Sf9 cells using biotin-GRPRTSSFAEG as substrate after 20 mins by Alpha-screen assay
T1 sequence (P31749 whole entry): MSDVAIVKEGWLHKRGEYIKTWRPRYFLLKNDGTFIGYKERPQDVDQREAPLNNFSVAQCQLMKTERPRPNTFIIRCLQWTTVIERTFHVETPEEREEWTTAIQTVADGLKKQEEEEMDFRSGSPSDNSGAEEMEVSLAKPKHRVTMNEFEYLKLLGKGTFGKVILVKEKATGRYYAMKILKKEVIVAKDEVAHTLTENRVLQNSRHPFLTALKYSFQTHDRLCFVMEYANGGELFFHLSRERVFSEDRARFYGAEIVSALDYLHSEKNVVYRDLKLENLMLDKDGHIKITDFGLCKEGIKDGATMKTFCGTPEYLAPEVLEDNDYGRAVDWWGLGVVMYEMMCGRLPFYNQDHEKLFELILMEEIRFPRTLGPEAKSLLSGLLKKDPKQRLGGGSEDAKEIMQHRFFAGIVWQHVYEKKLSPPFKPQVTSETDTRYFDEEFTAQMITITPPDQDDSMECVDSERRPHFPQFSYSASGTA

[2] = biological target: T1, RAC-alpha serine/threonine-protein kinase; conditions: Sf9
[3] = biological target: T1, RAC-alpha serine/threonine-protein kinase; assay: Inhibition of Akt1 in human A2780 cells assessed as phosphorylation PRAS40 at T246 after 2 hrs by Western Blot analysis; assay type: cell-based
[4] = biological target: T2, RAC-beta serine/threonine-protein kinase (Homo sapiens, UniProt P31751); assay: Inhibition of Akt2 (1 to 481) expressed in Sf9 cells using biotin-GRPRTSSFAEG as substrate after 20 mins by Alpha-screen assay
T2 sequence (P31751 whole entry): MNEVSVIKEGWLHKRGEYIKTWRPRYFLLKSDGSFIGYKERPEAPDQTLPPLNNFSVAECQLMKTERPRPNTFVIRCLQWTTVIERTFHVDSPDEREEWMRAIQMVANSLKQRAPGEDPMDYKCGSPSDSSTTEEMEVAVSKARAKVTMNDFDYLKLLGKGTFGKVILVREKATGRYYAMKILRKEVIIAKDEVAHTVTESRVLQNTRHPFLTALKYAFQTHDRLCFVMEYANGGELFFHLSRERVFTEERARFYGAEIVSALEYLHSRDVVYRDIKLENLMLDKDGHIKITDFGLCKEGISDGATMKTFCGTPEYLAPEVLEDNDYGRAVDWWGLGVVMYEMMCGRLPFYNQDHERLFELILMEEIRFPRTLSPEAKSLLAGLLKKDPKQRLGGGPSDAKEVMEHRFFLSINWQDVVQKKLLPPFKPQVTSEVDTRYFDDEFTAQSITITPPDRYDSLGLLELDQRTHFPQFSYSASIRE

[5] = biological target: T1, RAC-alpha serine/threonine-protein kinase; assay: Inhibition of Akt1 in human A2780 cells assessed as phosphorylation of Akt at S473 after 2 hrs by Western Blot analysis; assay type: cell-based
[6] = biological target: T2, RAC-beta serine/threonine-protein kinase; assay: Binding affinity to Akt2 (1 to 481) expressed in Sf9 cells assessed as change in melting temperature at 15 uM
[7] = biological target: T3, RAC-gamma serine/threonine-protein kinase (Homo sapiens, UniProt Q9Y243); assay: Binding affinity to Akt3 (1 to 479) expressed in Sf9 cells assessed as change in melting temperature at 15 uM
T3 sequence (Q9Y243 whole entry): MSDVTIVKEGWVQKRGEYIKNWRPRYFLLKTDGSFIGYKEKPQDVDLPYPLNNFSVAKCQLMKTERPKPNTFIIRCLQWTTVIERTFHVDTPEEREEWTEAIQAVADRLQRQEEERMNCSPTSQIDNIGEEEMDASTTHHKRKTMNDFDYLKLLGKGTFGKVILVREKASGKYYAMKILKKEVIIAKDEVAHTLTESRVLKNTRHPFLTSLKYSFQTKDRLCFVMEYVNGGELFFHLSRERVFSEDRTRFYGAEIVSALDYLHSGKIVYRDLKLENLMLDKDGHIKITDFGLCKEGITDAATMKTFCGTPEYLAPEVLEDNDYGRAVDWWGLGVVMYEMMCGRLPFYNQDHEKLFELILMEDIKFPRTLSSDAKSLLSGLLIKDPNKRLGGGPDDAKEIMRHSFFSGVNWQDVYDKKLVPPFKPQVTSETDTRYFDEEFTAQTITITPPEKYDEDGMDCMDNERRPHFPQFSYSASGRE

[8] = biological target: T1, RAC-alpha serine/threonine-protein kinase; assay: Inhibition of Akt1 in human AN3CA cells assessed as phosphorylation PRAS40 at T246 after 2 hrs by Western Blot analysis; assay type: cell-based, AN3-CA
A2780 = assay: Antiproliferative activity against human A2780 cells after 72 hrs by MTS assay; assay type: functional, cell-based; conditions: A2780, 72 h
AN3-CA = assay: Antiproliferative activity against human AN3CA cells after 72 hrs by MTS assay; assay type: functional, cell-based
[9] = biological target: T1, RAC-alpha serine/threonine-protein kinase; assay: Inhibition of Akt1 in human AN3CA cells assessed as phosphorylation of Akt at S473 after 2 hrs by Western Blot analysis; assay type: cell-based, AN3-CA
[10] = biological target: T1, RAC-alpha serine/threonine-protein kinase; assay: Inhibition of Akt 1 in human A2780 cells assessed as phosphorylation of Akt at T308 after 2 hrs by Western Blot analysis; assay type: cell-based
[11] = biological target: T3, RAC-gamma serine/threonine-protein kinase; assay: Inhibition of Akt3 (1 to 479) expressed in Sf9 cells using biotin-GRPRTSSFAEG as substrate after 20 mins by Alpha-screen assay
[12] = biological target: T1, RAC-alpha serine/threonine-protein kinase; assay: Inhibition of Akt 1 in human AN3CA cells assessed as phosphorylation of Akt at T308 after 2 hrs by Western Blot analysis; assay type: cell-based, AN3-CA
[13] = biological target: T1, RAC-alpha serine/threonine-protein kinase; assay: Inhibition of Akt1 (1 to 480) expressed in Sf9 cells by indirect affinity mass spectrometry assay
[14] = biological target: T1, RAC-alpha serine/threonine-protein kinase; conditions: Sf9; remark: listed apart in the source
Description: Binding affinity to Akt1 (144 to 480) expressed in Sf9 cells assessed as fluorescence quenching by Trp fluorescence assay

[15] = biological target: T1, RAC-alpha serine/threonine-protein kinase; conditions: Sf9; remark: listed apart in the source
Description: Binding affinity to Akt1 (1 to 480) expressed in Sf9 cells assessed as fluorescence quenching by Trp fluorescence assay

[16] = biological target: T1, RAC-alpha serine/threonine-protein kinase; conditions: Sf9; remark: listed apart in the source
Description: Binding affinity to Akt1 (144 to 480) expressed in Sf9 cells assessed as change in melting temperature at 15 uM

[17] = biological target: T1, RAC-alpha serine/threonine-protein kinase; conditions: Sf9; remark: listed apart in the source
Description: Binding affinity to Akt1 (1 to 480) expressed in Sf9 cells assessed as change in melting temperature at 15 uM

IC50 [1] [nM] | ΔTm [2] [°C] | IC50 [3] [nM] | IC50 [4] [nM] | IC50 [5] [nM] | ΔTm [6] [°C] | IC50 [8] [nM] | IC50 (A2780) [nM] | IC50 [9] [nM] | IC50 [10] [nM] | IC50 [11] [nM] | IC50 [12] [nM] | Compound | IC50 (AN3-CA) [nM] | also measured
> 300000 | 0.9 |  |  |  |  |  |  |  |  |  |  | CC(C)(C)c1ccc(-n2c(-c3cccnc3N)nc3cc(Br)cnc32)cc1 |  | 
15 | 12.8 | 910 | 47 | 130 | 6.7 | 840 | 1600 | 110 | 140 | 170 | 170 | CC(=O)Nc1cccc(-c2ccc3nc(-c4cccnc4N)n(-c4ccc(CNC(=O)c5ccccc5)cc4)c3n2)c1 | 1500 | ΔTm [7]: 2.5 °C
58000 |  |  |  |  |  |  |  |  |  |  |  | COc1ccccc1Cn1c(-c2cccnc2N)nc2cccnc21 |  | deltaTm [2]: inactive
740 | 4.1 |  |  |  |  |  |  |  |  |  |  | Nc1ccc(-n2c(-c3cccnc3N)nc3cccnc32)cc1 |  | 
24 | 11 | 410 | 35 | 68 | 6.4 | > 10000 | 9500 | > 10000 | 180 | 390 | > 10000 | Nc1ncccc1-c1nc2ccc(-c3ccccc3)nc2n1-c1ccc(CNC(=O)c2ccccc2)cc1 | 5500 | ΔTm [7]: 1.8 °C
> 300000 |  |  |  |  |  |  |  |  |  |  |  | CC(C)(C)c1cccc(-n2c(-c3cccnc3N)nc3cccnc32)c1 |  | deltaTm [2]: inactive
> 300000 |  |  |  |  |  |  |  |  |  |  |  | COc1ccccc1Cn1c(-c2cccnc2N)nc2cc(Br)cnc21 |  | deltaTm [2]: inactive
> 300000 |  |  |  |  |  |  |  |  |  |  |  | CC(C)(C)c1ccc(-n2c(-c3ccncc3)nc3cccnc32)cc1 |  | deltaTm [2]: inactive
110 | 6 | 2100 | 800 |  | 3.3 | > 10000 | 65000 | 3700 | 210 | > 100000 | 9400 | Nc1ncccc1-c1nc2cc(C3CCCC3)cnc2n1-c1ccc(CNC(=O)c2ccccc2)cc1 | 33000 | IC50 [13]: 12000 nM; deltaTm [7]: inactive
47 | 11.1 | 1300 | 80 | 190 | 5.7 | 2100 | 10000 | 95 | 690 | 660 | 340 | Nc1ncccc1-c1nc2ccc(-c3cccnc3)nc2n1-c1ccc(CNC(=O)c2cccc(F)c2)cc1 | 10000 | ΔTm [7]: 1.6 °C
1300 | 3.7 |  |  |  |  |  |  |  |  |  |  | CC(=O)Nc1ccc(-n2c(-c3cccnc3N)nc3cccnc32)cc1 |  | 
8800 |  |  |  |  |  |  |  |  |  |  |  | NCc1ccc(-n2c(-c3cccnc3)nc3cccnc32)cc1 |  | deltaTm [2]: inactive
 | 4.7 |  |  |  |  |  |  |  |  |  |  | Nc1ncccc1-c1nc2cccnc2n1-c1ccc(CNC(=O)Cc2ccccc2)cc1 |  | 
14 | 7.3 |  |  |  |  |  |  |  |  |  |  | Nc1ncccc1-c1nc2cccnc2n1-c1ccc(NC(=O)c2ccccc2)cc1 |  | 
 | 9.7 | 740 | 32 | 34 | 4 | 3200 | 23000 | 1400 | 67 | 370 | 4200 | Nc1ncccc1-c1nc2ccc(-c3cccnc3)nc2n1-c1ccc(CNC(=O)c2ccccc2)cc1 | 13000 | ΔTm [7]: 1 °C
17 | 11.1 | 140 | 24 | 120 | 6.7 | 1500 | 3300 | 90 | 15 | 2500 | 260 | CC(=O)Nc1cccc(-c2ccc3nc(-c4cccnc4N)n(-c4ccc(CC(=O)Nc5cccc(F)c5)cc4)c3n2)c1 | 1700 | ΔTm [7]: 1.5 °C
> 300000 |  |  |  |  |  |  |  |  |  |  |  | COc1ccccc1Cn1c(-c2ccncc2)nc2cc(Br)cnc21 |  | IC50 [13]: 5900 nM; deltaTm [2]: inactive
 |  |  |  |  |  |  |  |  |  |  |  | Cc1n[nH]c2ccc(-c3cncc(OC[C@@H](N)Cc4ccccc4)c3)cc12 |  | ΔTm [14]: 2.12 °C; deltaTm [15]: inactive; ΔTm [16]: 1.3 °C; deltaTm [17]: inactive
 | 1.9 |  |  |  |  |  |  |  |  |  |  | CC(C)(C)c1ccc(-n2c(-c3cccnc3N)nc3cccnc32)cc1 |  | 
27 | 8.1 | 3100 | 130 | < 12 | 3 | > 10000 | 65000 | 2500 | 170 | > 10000 | > 10000 | Nc1ncccc1-c1nc2cc(Br)cnc2n1-c1ccc(CNC(=O)c2ccccc2)cc1 | 60000 | ΔTm [7]: 1 °C
50 | 10.8 | 480 | 25 | 65 | 5.1 | 2500 | 9400 | 69 | 55 | 390 | 51 | Nc1ncccc1-c1nc2ccc(-c3cccnc3)nc2n1-c1ccc(CC(=O)Nc2ccccc2)cc1 | 8800 | ΔTm [7]: 1.8 °C

Compound | IC50 [1] [nM] | ΔTm [2] [°C] | IC50 [3] [nM] | IC50 [4] [nM] | IC50 [5] [nM] | ΔTm [6] [°C] | IC50 [8] [nM] | IC50 (A2780) [nM] | IC50 [9] [nM] | IC50 [10] [nM] | IC50 [11] [nM] | IC50 [12] [nM] | IC50 (AN3-CA) [nM] | also measured
CC(=O)NCc1ccc(-n2c(-c3cccnc3N)nc3cccnc32)cc1 | 810 | 2.3 |  |  |  |  |  |  |  |  |  |  |  | 
CC(C)(C)c1ccc(-n2c(-c3cccnc3)nc3cccnc32)cc1 | 185000 |  |  |  |  |  |  |  |  |  |  |  |  | deltaTm [2]: inactive
Nc1ncccc1-c1nc2cc(-c3cccnc3)cnc2n1-c1ccc(CNC(=O)c2cccc(F)c2)cc1 | 5.2 | 9.4 | 580 | 27 | 54 | 5.4 | 820 | 19000 | 46 | 200 |  | 49 | 13000 | ΔTm [7]: 1.5 °C
Nc1ncccc1-c1nc2cccnc2n1-c1cccc(CNC(=O)c2ccccc2)c1 | 13000 |  |  |  |  |  |  |  |  |  |  |  |  | deltaTm [2]: inactive
Nc1ncccc1-c1nc2cc(-c3ccccc3)cnc2n1-c1ccc(CNC(=O)c2ccccc2)cc1 | 33 | 5.61 | 1800 | 51000 | 330 | 1.2 | 980 | > 100000 | 160 | 680 | > 100000 | 1100 | > 100000 | deltaTm [7]: inactive
Nc1ncccc1-c1nc2cccnc2n1-c1ccc(CNCc2ccccc2)cc1 | 260 | 4.9 |  |  |  |  |  |  |  |  |  |  |  | 
